Earlier results, collected in US20200178572A1 (priority 2017, published 2020).

Conditions: in vivo

CC1=CC[C@H]2C[C@@H]1C2(C)C [α-Pinene, (1S,5S)-2,6,6-Trimethylbicyclo[3.1.1]hept-2-ene]
human pulmonary uptake: 60%
